Like-named read-outs stand apart in the source and are kept apart here.
Legend:
[1] = Body weight and growth rate of G-K rats treated with zinc or zinc plus CHP (FIGS. 1, 2, 11-13); type: in vivo; settings: one month old (young) G-K rats; FIG. 2
Description: I believe that CHP is effective in maintaining body weight control even after the cessation of the treatment.

[2] = Body weight and water intake in S-D rats treated with zinc or zinc plus CHP (FIGS. 4, 5, 9); settings: 8-month old S-D rats; FIG. 9
[3] = Plasma insulin levels in G-K rats treated with zinc and CHP (Example 1, Table 2); type: in vivo; settings: for Plasma Insulin Levels (mean ± SEM): 6-month old G-K rats
Description: However, higher doses of CHP decreased plasma insulin levels. (Table 2)

[4] = Water intake in G-K rats treated with AA plus zinc (Example 3, FIG. 10); type: in vivo; settings: One-month old G-K rats, 2 weeks
Description: (FIG. 10). Thus, water intake was reduced in rats with all treatments containing zinc relative to DW-treated rats, but not with the AA-only treatment.

[5] = Food and water intake in G-K rats treated with zinc or zinc plus CHP (FIGS. 6, 8); type: in vivo
[6] = tested on: intestinal zinc transport; settings: cited from earlier work
[7] = cited from earlier work
[8] = Arachidonic acid plus zinc and L-histidine in drinking water for 14 days in ob/ob and lean mice (Example 2, Table 3); type: in vivo; settings: for Body Weight Gain / Food Intake / Water Intake: 14 days, mean ± SEM
Description: Eight week old male C57BL/6J-obese ob/ob mice and their lean wild-type littermates were randomly divided into five groups of five mice and treated with the following levels of AA in drinking water: (i) 0 mg AA/l; (ii) 10 mg AA/l; (iii) 20 mg AA/l; (iv) 50 mg AA/l; or (v) 100 mg AA/l. 10 mg zinc and 0.5 mg L-histidine/l were also included at each level of AA described above. The treatment solutions were replaced with freshly prepared solutions every other day during the 2-week treatment period. Body weight, and food and water intake were measured every other day in the morning, beginning the first day of treatment.

[9] = tested on: intestinal zinc absorption; settings: normal (non-diabetic) rats, oral, cited from earlier work
[10] = cited from earlier work; remark: listed apart in the source
[11] = CHP plus zinc and L-histidine in drinking water for 21 days in ob/ob and lean mice (Example 5, Table 1); type: in vivo; settings: for Body Weight Gain / Food Intake / Water Intake: 21 days, mean ± SEM
Description: Ob/ob and lean mice were randomly divided into four groups and treated with drinking water containing either 0, 0.5, 1.0, or 1.5 mg CHP/L plus 10 mg zinc and 0.5 mg L-histidine/L. Drinking water containing test substances was prepared every other day with freshly prepared solutions. During the testing non-fasting blood glucose concentrations, food and water intake, and body weight were measured every other day in the morning. Non-fasting plasma insulin concentrations and three-hour average blood glucose concentrations were determined at the end of the three-week treatment period.

[12] = humans; CHP intake; cited from earlier work
[13] = cited from earlier work; remark: listed apart in the source
[14] = Lean mice, 10 mg/L AA plus 10 mg/L zinc and 0.5 mg/L L-histidine
[15] = Lean mice, 20 mg/L AA plus 10 mg/L zinc and 0.5 mg/L L-histidine
[16] = Lean mice, 50 mg/L AA plus 10 mg/L zinc and 0.5 mg/L L-histidine
[17] = Lean mice, 100 mg/L AA plus 10 mg/L zinc and 0.5 mg/L L-histidine
[18] = Ob/ob mice, 10 mg/L AA plus 10 mg/L zinc and 0.5 mg/L L-histidine
[19] = Ob/ob mice, 20 mg/L AA plus 10 mg/L zinc and 0.5 mg/L L-histidine, p < 0.05 vs 0 mg/l group
[20] = Ob/ob mice, 50 mg/L AA plus 10 mg/L zinc and 0.5 mg/L L-histidine
[21] = Ob/ob mice, 100 mg/L AA plus 10 mg/L zinc and 0.5 mg/L L-histidine
[22] = Lean mice, 0.5 mg/L CHP plus 10 mg/L zinc and 0.5 mg/L L-histidine
[23] = Lean mice, 1.0 mg/L CHP plus 10 mg/L zinc and 0.5 mg/L L-histidine
[24] = Lean mice, 1.5 mg/L CHP plus 10 mg/L zinc and 0.5 mg/L L-histidine
[25] = Ob/ob mice, 0.5 mg/L CHP plus 10 mg/L zinc and 0.5 mg/L L-histidine
[26] = Ob/ob mice, 1.0 mg/L CHP plus 10 mg/L zinc and 0.5 mg/L L-histidine
[27] = Ob/ob mice, 1.5 mg/L CHP plus 10 mg/L zinc and 0.5 mg/L L-histidine

With `[Zn]` [zinc] the growth rates [1] was “not affected”, the water intakes [2] was “significantly decreased” and the “Plasma Insulin Levels (mean ± SEM)” value ([3]; zinc only 10 mg/L in drinking water) was 0.637 ± 0.048 ng/mL. The Water Intake ([4]; 10 mg/L zinc only) was “significantly decreased”, the Water Intake ([5]; 1.0-month-old rats) was “not affected” and the “Water intake compared to distilled water (DW) treated rats” value ([5]; 10 month old G-K rats, P<0.01, FIG. 8) was “significantly lower”.

In the case of `CCCCC/C=C\C/C=C\C/C=C\C/C=C\CCCC(=O)O` [AA, arachidonic acid], the “zinc uptake (rate) of intestinal segments” value ([6]; jejunal / isolated intestinal segments of diabetic rats, AA added to the segment-bathing medium) is given as “increased significantly”, the “zinc transport rate into the circulatory system” value ([6]; jejunal segments of diabetic rats) is given as “did not enhance” and the Water Intake ([7]; diabetic G-K rats) is given as “significantly reduced”. The “optimal concentration of AA required to provide improved blood glucose levels” value (shortened to “optimal concentration of AA required”) ([7]; diabetic G-K rats) was 4.0 mg/day/kg, the water consumption rates ([7]; diabetic rats, higher doses of AA) was “significantly decreased” and the “optimal concentration of AA required” value ([7]; streptozotocin induced diabetic rats) was 11 mg/day/kg. For the same molecule, the Water Intake ([7]; streptozotocin-induced diabetic rats) was “significantly reduced”, the “Body Weight Gain” value [8, 14] was 1.0 ± 0.2 g and the “Food Intake” value [8, 14] was 143.9 ± 13.2 g/kg BW/day. For the same molecule, the “Water Intake” value [8, 14] was 207.3 ± 23.6 ml/kg BW/day, the “Body Weight Gain” value [8, 15] was 0.6 ± 0.2 g and the “Food Intake” value [8, 15] was 129.9 ± 11.1 g/kg BW/day. The “Water Intake” value [8, 15] was 211.6 ± 23.6 ml/kg BW/day, the “Body Weight Gain” value [8, 16] was 1.0 ± 0.3 g and the “Food Intake” value [8, 16] was 133.1 ± 9.5 g/kg BW/day. The “Water Intake” value [8, 16] was 211.9 ± 21.5 ml/kg BW/day, the “Body Weight Gain” value [8, 17] was 0.6 ± 0.1 g and the “Food Intake” value [8, 17] was 130.0 ± 13.2 g/kg BW/day. The “Water Intake” value [8, 17] was 216.1 ± 21.0 ml/kg BW/day, the “Body Weight Gain” value [8, 18] was 2.3 ± 0.7 g and the “Food Intake” value [8, 18] was 126.5 ± 13.2 g/kg BW/day. The “Water Intake” value [8, 18] was 215.9 ± 15.2 ml/kg BW/day, the “Body Weight Gain” value ([8]; Ob/ob mice, 20 mg/L AA plus 10 mg/L zinc and 0.5 mg/L L-histidine) was 2.6 ± 0.4 g and the “Food Intake” value [8, 19] was 107.5 ± 9.0 g/kg BW/day. For the same molecule, the “Water Intake” value [8, 19] was 182.9 ± 12.4 ml/kg BW/day, the “Body Weight Gain” value [8, 20] was 2.4 ± 1.7 g and the “Food Intake” value [8, 20] was 114.4 ± 9.9 g/kg BW/day. The “Water Intake” value ([8]; Ob/ob mice, 50 mg/L AA plus 10 mg/L zinc and 0.5 mg/L L-histidine, p < 0.05 vs 0 mg/l group) was 188.7 ± 11.5 ml/kg BW/day, the “Body Weight Gain” value [8, 21] was 2.9 ± 0.5 g and the “Food Intake” value [8, 21] was 116.0 ± 12.0 g/kg BW/day. For the same molecule, the “Water Intake” value ([8]; Ob/ob mice, 100 mg/L AA plus 10 mg/L zinc and 0.5 mg/L L-histidine, p < 0.05 vs 0 mg/l group) was 198.9 ± 15.3 ml/kg BW/day, the “water and food intake” value ([8]; lean mice) was “no treatment effect” and the “Food intake versus those treated with only zinc and L-histidine” value ([8]; obese mice, 20 mg/L AA plus zinc, p<0.05) was “significantly lower”. The “Water intake versus those given only zinc and L-histidine” value ([8]; obese mice, 20, 50 or 100 mg AA/l, p<0.05) was “significantly lower”, the body weight ([8]; obese or lean mice) was “no effect” and the “water intake reduced relative to DW-treated rats” value ([4]; AA-only treatment (20 mg/L AA)) was “not”. For the same molecule, the intestinal zinc absorption ([9]; high doses of AA, above 1.0 mg/200 g body weight) was “increased”, the intestinal zinc absorption ([9]; low doses of AA (0.5 mg/200 g)) was “decreased” and the Water Intake ([10]; genetically obese mice) was “significantly reduced”. For the same molecule, the “optimal concentration of AA required” value ([10]; obese mice) was 2.0 mg/day/kg.

With `O=C1N[C@@H](Cc2cnc[nH]2)C(=O)N2CCC[C@@H]12` [CHP, cyclo-Hispro] the “Body Weight Gain” value [11, 22] was 1.5 ± 0.4 g, the “Food Intake” value [11, 22] was 171.7 ± 12.5 g/kg BW/day and the “Water Intake” value [11, 22] was 267.1 ± 22.7 ml/kg BW/day. For the same molecule, the “Body Weight Gain” value [11, 23] was 1.3 ± 0.5 g, the “Food Intake” value [11, 23] was 159.6 ± 7.3 g/kg BW/day and the “Water Intake” value [11, 23] was 258.2 ± 21.8 ml/kg BW/day. The “Body Weight Gain” value [11, 24] was 2.2 ± 0.9 g, the “Food Intake” value [11, 24] was 180.6 ± 19.5 g/kg BW/day and the “Water Intake” value [11, 24] was 302.5 ± 27.2 ml/kg BW/day. For the same molecule, the “Body Weight Gain” value [11, 25] was 4.3 ± 0.8 g, the “Food Intake” value [11, 25] was 128.3 ± 7.8 g/kg BW/day and the “Water Intake” value [11, 25] was 198.2 ± 13.5 ml/kg BW/day. For the same molecule, the “Food Intake” value [11, 26] was 110.6 ± 10.3 g/kg BW/day, the “Water Intake” value [11, 26] was 160.4 ± 9.7 ml/kg BW/day and the “Body Weight Gain” value ([11]; Ob/ob mice, 1.0 mg/L CHP plus 10 mg/L zinc and 0.5 mg/L L-histidine, p < 0.05 vs 0 or 0.5 mg CHP/L) was 2.3 ± 0.8 g. The “Body Weight Gain” value [11, 27] was 3.8 ± 0.9 g, the “Food Intake” value [11, 27] was 120.7 ± 10.4 g/kg BW/day and the “Water Intake” value [11, 27] was 192.5 ± 16.8 ml/kg BW/day. For the same molecule, the “Water and food intake relative to the other treatment groups” value ([11]; ob/ob mice, 1.0 mg CHP plus zinc and L-histidine, difference not significant) was “lowest”, the “Body weight gain relative to those given zinc and L-histidine only” value ([11]; ob/ob mice, 1.0 mg CHP/L plus zinc and L-histidine, P<0.05) was “significantly reduced” and the Food Intake [12] was “decreases”. The Water Intake ([13]; intraventricular administration) was “significantly reduces”, the Food Intake ([13]; rats, CHP intake) was “decreases” and the “Plasma Insulin Levels (mean ± SEM)” value ([3]; CHP only 1.0 mg/L in drinking water) was 0.907 ± 0.090 ng/mL. The plasma insulin levels ([3]; hyperinsulinemic diabetic G-K rats, higher / increasing doses of CHP) was “decreased”.
